Laboratory results reported in ChEMBL document CHEMBL1135846, “In vivo active antimalarial isonitriles” (Bioorg Med Chem Lett, 2002).
In brackets after ≈: the same amount, converted by molar mass. One block for each compound: values may come before it.

Key:
[1] = system: Plasmodium falciparum; assay: In vitro antimalarial activity for Plasmodium falciparum NF54; format: functional
[2] = system: Mus musculus; assay: Antimalarial activity of compound against multidrug-resistant strain of Plasmodium yoelii in 5 Swiss mice (Mus musculus) treated at a dose of 50 mg/kg/day; format: functional
[3] = system: Mus musculus; assay: Antimalarial activity of compound against multidrug-resistant strain of Plasmodium yoelii in 5 Swiss mice (Mus musculus) treated at a dose of 100 mg/kg/day; format: functional
[4] = system: Mus musculus; assay: Antimalarial activity of compound against multidrug-resistant strain of Plasmodium yoelii in Swiss mice (Mus musculus) at a dose of 100 mg/kg/day (percent suppression on day 4); format: functional
[5] = system: Mus musculus; assay: Antimalarial activity of compound against multidrug-resistant strain of Plasmodium yoelii in Swiss mice (Mus musculus) at a dose of 50 mg/kg/day (percent suppression on day 4); format: functional
[6] = system: Mus musculus; assay: Number of mice alive on day 28 treated with a dose of 12.5 mg/kg/day; format: functional
[7] = system: Mus musculus; assay: Number of mice alive on day 28 treated with a dose of 25 mg/kg/day; format: functional
[8] = system: Mus musculus; assay: Number of mice alive on day 28 treated with a dose of 50 mg/kg/day; format: functional
[9] = system: Mus musculus; assay: Antimalarial activity of compound against multidrug-resistant strain of Plasmodium yoelii in 5 Swiss mice (Mus musculus) treated at a dose of 6.25 mg/Kg/day; format: functional
[10] = system: Mus musculus; assay: Mean survival time of animals was calculated after administering a dose of 50 mg/kg/day during 28-day observation period; format: functional
[11] = system: Mus musculus; assay: Number of mice alive on day 28 treated with a dose of 6.25 mg/kg/day; format: functional
[12] = system: Mus musculus; assay: Mean survival time of animals was calculated after administering a dose of 6.25 mg/Kg/day during 28-day observation period; format: functional
[13] = system: Mus musculus; assay: Antimalarial activity of compound against multidrug-resistant strain of Plasmodium yoelii in Swiss mice (Mus musculus) at a dose of 25 mg/kg/day (percent suppression on day 4); format: functional
[14] = system: Mus musculus; assay: In vivo antimalarial activity of compound against multidrug-resistant strain of Plasmodium yoelii in 5 Swiss mice (Mus musculus) treated at a dose of 25 mg/kg/day; format: functional
[15] = system: Mus musculus; assay: Mean survival time of animals was calculated after administering a dose of 12.5 mg/kg/day during 28-day observation period; format: functional
[16] = system: Mus musculus; assay: Antimalarial activity of compound against multidrug-resistant strain of Plasmodium yoelii in 5 Swiss mice (Mus musculus) treated at a dose of 12.5 mg/Kg/day; format: functional
[17] = Antimalarial activity of compound against multidrug-resistant strain of Plasmodium yoelii in Swiss mice (Mus musculus) at a dose of 100 mg/kg/day (percent suppression on day 4); toxic; format: organism-based; conditions: in vivo
[18] = system: Mus musculus; assay: Antimalarial activity of compound against multidrug-resistant strain of Plasmodium yoelii in Swiss mice (Mus musculus) at a dose of 12.5 mg/kg/day (percent suppression on day 4); format: functional
[19] = system: Mus musculus; assay: Mean survival time of animals was calculated after administering a dose of 25 mg/kg/day during 28-day observation period; format: functional
[20] = system: Mus musculus; assay: Antimalarial activity of compound against multidrug-resistant strain of Plasmodium yoelii in Swiss mice (Mus musculus) at a dose of 6.25 mg/kg/day (percent suppression on day 4); format: functional
[21] = system: Mus musculus; assay: Antimalarial activity of compound against multidrug-resistant strain of Plasmodium yoelii in Swiss mice (Mus musculus) at a dose of 50 mg/kg/day (percent suppression on day 4-nil); format: functional, organism-based
[22] = system: Mus musculus; assay: Antimalarial activity of compound against multidrug-resistant strain of Plasmodium yoelii in 5 Swiss mice (Mus musculus) at a dose of 100 mg/kg/day; format: functional
[23] = system: Mus musculus; assay: Antimalarial activity of compound against multidrug-resistant strain of Plasmodium yoelii in 5 Swiss mice (Mus musculus) at a dose of 50 mg/kg/day; format: functional

- MIC [1]: > 50 µg/mL
Structure (SMILES): [C-]#[N+][C@H]1CC[C@@]2(C)[C@@H](CC[C@@H]3[C@@H]2CC[C@]2(C)[C@@H]([C@H](C)CCCC(C)C)CC[C@@H]32)C1

- MIC [1]: > 50 µg/mL
Structure (SMILES): [C-]#[N+]C1CC[C@@]2(C)[C@@H](CC[C@@H]3[C@@H]2CC[C@]2(C)[C@@H]([C@H](C)CCCC(C)C)CC[C@@H]32)C1 (some centres not stated)

- MIC [1]: 50 µg/mL (≈ 303 µM)
Structure (SMILES): [C-]#[N+]C1C[C@H](C)CC[C@H]1C(C)C (some centres not stated)

- MIC [1]: 50 µg/mL (≈ 192 µM)
Structure (SMILES): [C-]#[N+]c1ccc(Br)cc1Br

The remaining lines, values behind:

Structure (SMILES): [C-]#[N+]c1cccc2ccccc12
- MIC [1]: 50 µg/mL (≈ 326 µM)

Structure (SMILES): [C-]#[N+]c1ccc2c(c1)Cc1ccccc1-2
- No. of mice cured [2]: 0
- No. of mice cured [3]: 0
- Supression [4]: 21.35%
- Supression [5]: 6.34%
- MIC [1]: 2 µg/mL (≈ 10.5 µM)

Structure (SMILES): [C-]#[N+]c1ccc2ccccc2c1
- MIC [1]: 50 µg/mL (≈ 326 µM)

Structure (SMILES): [C-]#[N+]C12CC3CC(CC(C3)C1)C2
- Survival [6]: 0
- Survival [7]: 1
- Survival [8]: 2
- No. of mice cured [9]: 0
- MST [10]: 16.3
- No. of mice cured [2]: 2
- No. of mice cured [3]: 0
- Survival [11]: 0
- MST [12]: 8.2
- Supression [13]: 99.8%
- No. of mice cured [14]: 0
- MST [15]: 11.8
- No. of mice cured [16]: 0
- Supression [17]: Toxic
- Supression [18]: 73%
- MST [19]: 12.8
- Supression [5]: 100%
- Supression [20]: 19%
- MIC [1]: 0.4 µg/mL (≈ 2.48 µM)

Structure (SMILES): C[C@@H]1CC[C@H]2[C@@H](C)C(=O)O[C@@H]3O[C@@]4(C)CC[C@@H]1[C@]32OO4 [ARTEMISININ]
- MIC [1]: 0.03 µg/mL (≈ 0.106 µM)

Structure (SMILES): [C-]#[N+]c1ccc(-c2ccccc2)cc1
- No. of mice cured [2]: 0
- No. of mice cured [3]: 0
- Supression [4]: 62.79%
- Supression [5]: 32.98%
- MIC [1]: 1 µg/mL (≈ 5.58 µM)

Structure (SMILES): CCN(CC)CCCC(C)Nc1ccnc2cc(Cl)ccc12 (configuration not stated) [CHLOROQUINE]
- MIC [1]: 0.04 µg/mL (≈ 0.125 µM)

Structure (SMILES): [C-]#[N+]c1ccc(C(C)=O)cc1
- Supression [21]: Nil
- No. of mice cured [22]: 0
- No. of mice cured [23]: 0
- Supression [4]: 35.72%
- MIC [1]: 2 µg/mL (≈ 13.8 µM)
